The values that follow come from patent US20220267271A1, “WNT ACTIVATORS AND METHODS OF USE” (MAYO FOUNDATION FOR MEDICAL EDUCATION AND RESEARCH, priority 2019, published 2022).

The test system of one data set is TCF/LEF reporter. The settings on record: with Wnt3A; cited from earlier work.
Data set [1] is described as follows: Pharmacokinetic study in Balb/c mice following intravenous administration. In kind it is in vivo. The settings on record: male Balb/c mice, IV 2 mg/kg. The procedure: (A) Plasma and brain concentration—time curves of 1015 in male Balb/c mice following intravenous (2 mg/kg) administration (n=4 at each time point). (B) in vivo pharmacokinetic parameters of 1015. B/P: brain/plasma concentration ratio (30 min after IV injection with 2 mg/kg) calculated using 1 g/mL brain density.
Pharmacokinetic study of compound 1015 in Balb/c mice following intravenous administration: Male Balb/c mice (11-12 weeks old, body weight 21.9 to 31.3 g and average body weight across all groups 25.6 g, SD=2.19 g) were used in this study. The animals were randomly assigned to the treatment groups before the pharmacokinetic study; all animals were fasted for 4 h before intravenous injection of 1015 at 2 mg/kg dissolved in Kolliphor HS-physiological saline (20%:80%). Eight time points (5, 15, 30, 60, 120, 240, 480 and 1440 min) were set for this pharmacokinetic study. Each of the time point treatment group included 4 animals. There was also a control group of 2 animals. Mice were injected IV with 2,2,2-tribromoethanol at the dose of 150 mg/kg prior to drawing the blood. Blood collection was performed from the orbital sinus in microtainers containing K2EDTA. Animals were sacrificed by cervical dislocation after blood samples collection. Brain and plasma samples were immediately processed, flash-frozen and stored at −70° C. until subsequent analysis.
Plasma samples (50 μl) were mixed with 200 μl of IS solution. After mixing by pipetting and centrifuging for 4 min at 6000 rpm, 2 μl of each supernatant was injected into LC-MS/MS system. Solution of compound IS-22665-01 (200 ng/ml in acetonitrile-methanol mixture, 1:1, v/v) was used as internal standard (IS) for quantification of 1015 in plasma samples. Brain samples (100 mg±1 mg) were dispersed in 500 μl of IS200(80) using zirconium oxide beads (150 mg±5 mg) in The Bullet Blender® homogenizer for 60 seconds at speed 8. […] Solution of compound IS-22665-01 (200 ng/ml in water-acetonitrile-methanol mixture, 2:4:4, v/v/v) was used as internal standard (IS200(80)) for quantification of 1015 in brain samples. […]

The subject of another data set is Wnt/β-catenin signaling. Kind of data set: Wnt/β-catenin signaling in human iPSC-derived neurons (Western blot, qPCR). Format: cell-based. As for the experimental part:
(§1) Human iPSC-derived neurons were treated with 1015 (0.4 μM) for 48 h, and the mRNA levels of axin2 (B), neuroD1 (C) and SOX2 (D) were determined by qPCR. All the values are the average of three independent experiments with the SE values indicated by error bars. * P<0.05, ** P<0.01 verse corresponding control. (E) Human iPSC-derived neurons were treated with 1015 (0.4 μM) for 48 h, and the levels of phopspho-tau (p-tau) and total tau were determined by Western blotting with specific antibodies AT8 and HT7, respectively. This experiment is a representative of two such experiments performed with similar data.
(§2) NeuroD1, a proneural basic helix-loop-helix (bHLH) transcription factor, plays a critical role in CNS development, and is important for survival of neuronal progenitor cells. There is a TCF/LEF regulatory element in the Neurod1 promoter, and NeuroD1 is a specific target of Wnt/β-catenin signaling. […] In addition, 1015 also induces neural stem cell marker SOX2 expression in human iPSC-derived neurons ([…]). Importantly, 1015 suppresses tau phosphorylation in human iPSC-derived neurons (FIG. 16 at D).
In general terms: In western blotting, separated proteins are transferred to a membrane and probed.

Another data set has as its system tau. As to the kind of experiment: Tau phosphorylation in human iPSC-derived neurons (Western blot AT8/HT7). In kind it is cell-based. The note with it: 0.4 μM, 48 h. The procedure: as §1, §2

As to `CC(=O)Nc1ccc(C(=O)Nc2ccccc2N)cc1` [CI-994, 4-(acetylamino)-N-(2-aminophenyl)benzamide, reference compound], in the data set with TCF/LEF reporter, the “activity of the TCF/LEF reporter” value is “able to synergize with Wnt3A to activate”.

With `Nc1ccccc1NC(=O)c1ccc(C(=O)NCC2CCN2C2CCCC2)cn1` (stereo not drawn) [Compound 1015], in data set [1], the “concentration in brain versus plasma” value is reported as “much higher concentration in brain than in plasma” and the “half-life (t1/2), brain versus plasma” value is “much longer in brain than in plasma”. For the same molecule, the Kp at 30 min in data set [1] (mouse, brain/plasma, 30 min after injection, read-out: brain concentration/plasma concentration ratio (B/P)) was 5.6. Moreover, in the data set with Wnt/β-catenin signaling (0.4 μM, 48 h), the “NeuroD1 expression (mRNA)” value is listed as “significantly enhances”, the “Wnt specific target axin2 expression (mRNA)” value is “increases” and the “neural stem cell marker SOX2 expression (mRNA)” value is reported as “induces”. Also, the “Wnt co-receptor LRP6 level” value in the data set with Wnt/β-catenin signaling (24 h) is “enhances”. The tau phosphorylation result in the data set on tau is “suppresses”.
